Tested on: 3α-hydroxysteroid oxidase
Experiment: Enzymatic characteristics: substrate specificity and Km value
Format: biochemical, Pseudomonas testosterone ATCC 11996
Conditions: not given

For `C[C@@]12CCC[C@H]1[C@@H]1CC[C@@H]3C[C@H](O)CC[C@]3(C)[C@H]1CC2` [5β-androstan-3α-ol], the “Substrate specificity (oxidase acts on substrate or not)” value was “acts on”.

Same assay, conditions: against ethiocholan-3α-ol-17-one

In the case of `C[C@]12CC[C@@H](O)C[C@H]1CC[C@@H]1[C@@H]2CC[C@]2(C)C(=O)CC[C@@H]12` [Ethiocholan-3α-ol-17-one], the Km is reported as 800 µM.

Tested on: 3α-hydroxysteroid oxidase
Experiment: Relative activities of the 3α-hydroxysteroid oxidase for various substrates
Format: biochemical, Pseudomonas testosterone ATCC 11996
Conditions: substrate of the oxidase; R.A. of cholic acid being 100
Procedure: Thereafter, the microorganism was cultured at the same temperature for 10-24 hours. After completion of the culture, the resultant culture broth was centrifuged to separate and collect cells. The thus-collected cells were suspended at 5° C. in 5 volumes of a 0.02 M phosphate buffer of pH 7.0, which contained 1% (w/v) of "Triton X-100" (BDH Ltd.), to a total volume of 1 l. By a cell disrupter, DINO-MILL (trade mark; manufactured by Willy A. Bachofen Maschinenfabrik AG), the cells were disrupted to release the enzyme. […] The extract was then added with 430 g of ammonium sulfate to a final concentration of 65% saturation, the precipitated fraction was collected by centrifugation. The precipitate was dissolved in a 0.lM phosphate buffer (pH 7) containing 0.1% of "Triton X-100" and the resultant mixture was dialyzed for 24 hours against the same buffer in order to remove any remaining ammonium sulfate.
An azide was added as a preservative to the enzyme solution.

Going from `C[C@]12CCC(=O)C[C@H]1CC[C@@H]1[C@@H]2CC[C@]2(C)C(=O)CC[C@@H]12` [5β-Androstan-3,17-dione] to `C[C@]12CCC(=O)C[C@@H]1CC[C@@H]1[C@@H]2CC[C@]2(C)C(=O)CC[C@@H]12` [5α-Androstan-3,17-dione], the “R.A. (relative activity)” value falls from 18% to 0%.

Going from `C[C@]12CC[C@H]3[C@@H](CCC4=CC(=O)CC[C@@]43C)[C@@H]1CC[C@@H]2O` [Testosterone] to `C[C@]12CC[C@@H](O)C[C@H]1CC[C@@H]1[C@@H]2CC[C@]2(C)C(=O)CC[C@@H]12` [Ethiocholan-3α-ol-17-one], the “R.A. (relative activity)” value rises from 0% to 140%.

First: C[C@H](CCC(=O)O)[C@H]1CC[C@H]2[C@@H]3CC[C@@H]4C[C@H](O)CC[C@]4(C)[C@H]3C[C@H](O)[C@]12C [Deoxycholic acid]
Second: C[C@H](CCC(=O)O)[C@H]1CC[C@H]2[C@@H]3[C@H](O)C[C@@H]4C[C@H](O)CC[C@]4(C)[C@H]3C[C@H](O)[C@]12C [Cholic acid]
The “R.A. (relative activity)” value of the first is lower: 86% for the first, 100% for the second.

Going from `C[C@H](CCC(=O)O)[C@H]1CC[C@H]2[C@@H]3CC[C@@H]4C[C@H](O)CC[C@]4(C)[C@H]3CC[C@]12C` [Cithocholic acid] to `C[C@H](CCC(=O)O)[C@H]1CC[C@H]2[C@@H]3[C@H](O)C[C@@H]4C[C@H](O)CC[C@]4(C)[C@H]3CC[C@]12C` [Chenodeoxycholic acid], the “R.A. (relative activity)” value rises from 57% to 89%.

First: C[C@H](CCC(=O)NCC(=O)O)[C@H]1CC[C@H]2[C@@H]3[C@H](O)C[C@@H]4C[C@H](O)CC[C@]4(C)[C@H]3C[C@H](O)[C@]12C [Glycocholic acid]
Second: CC(C)CCC[C@@H](C)[C@H]1CC[C@H]2[C@@H]3CC=C4C[C@@H](O)CC[C@]4(C)[C@H]3CC[C@]12C [Cholesterol]
The “R.A. (relative activity)” value of the first is higher: 95% for the first, 0% for the second.

For `C[C@]12CC[C@@H](O)C[C@@H]1CC[C@@H]1[C@@H]2CC[C@]2(C)C(=O)CC[C@@H]12` [5α-Androstan-3α-ol-17-one], the “R.A. (relative activity)” value was 0%.

— patent US4889801A (Daiichi Pure Chemicals Co., Ltd., priority 1986, dated 1989)
